Test results as given in PMC4864329, “In vitro and in vivo efficacy, toxicity, bio-distribution and resistance selection of a novel antibacterial drug candidate” (Scientific Reports, 2016).
Values joined by “and” are separate entries in the source; they are usually repeats but may differ in a detail not shown here. Equal values may be shown once.

Columns and labels:
BALB/c mice = experiment: Acute toxicity in mice, single i.v. dose; assay type: in vivo, mouse; conditions: for mortality: single i.v. dose 10 mg/Kg
Experimental: As preliminary toxicity evaluation we first compared the acute toxicity of SET-M33L and SET-M33L-PEG with that of colistin. Animals (10 BALB/c mice/group) were injected i.v. with different amounts of SET-M33L, SET-M33L-PEG or colistin, in single dose, in the range 5–40 mg/kg (Fig. 4), and were monitored for 4 days after inoculation of the peptide. […] At 40 mg/Kg SET-M33L and SET-M33L-PEG produced similar toxicity profiles with strong signs of toxicity and 90–100% mortality after 96 hours. Colistin produced strong signs of toxicity already at 10 mg/Kg: 50% mortality immediately after inoculation and 70% mortality after 24 hours. Colistin induced sudden death in 100% of mice at 20 and 40 mg/Kg.
Mice were treated by a single i.v. administration of different amounts (40, 20, 10, 5 mg/Kg) of SET-M33L, SET-M33L-PEG or colistin sulfate (Sigma-Aldrich, C4461). Signs of toxicity were checked four times a day by visual inspection. A toxicity score was assigned for the following signs: wiry coat and poor motility = mild signs; very wiry coat, abundant lachrymation and poor motility even under stimulation = manifest signs. Animals were monitored for 4 days after inoculation of the peptide. Mice were weighed every day from arrival to the last day of the experiment. Moribund animals were killed humanely to avoid unnecessary distress.

[1] = test system: K. pneumoniae strain KKBO-1; experiment: In vitro selection of resistant mutants on peptide-containing MHB agarose; assay type: cell-based, Klebsiella pneumoniae; conditions: KKBO-1, same experimental conditions
Experimental: Tests were performed by plating cells on SET-M33L- or colistin-containing MHB.
Selection was performed on an MHB-based selection medium containing 1% low electro-osmosis agarose as solidifying agent and 11.2 μM SET-M33L (64 μg/mL). Agarose was preferred to agar as solidifying agent due to the observed loss of antimicrobial activity of SET-M33L in selection media solidified with the latter, possibly due to the charged nature of agar. Klebsiella pneumoniae KKBO-1 strain was grown in MHB at 37 °C to OD600 0.35 and up to 5 × 10^9 colony forming units (CFU) were spread on Petri dishes containing 20 ml of the selection medium. Plates were incubated for 16–18 h at 37 °C. Colistin-containing selection medium (equimolar concentration with respect to SET-M33L) was used as control for the selection of colistin-resistant mutants. Experiments were performed in triplicate.

[2] = test system: Pseudomonas aeruginosa clinical isolates; experiment: MIC by standard microdilution, clinical isolates of Pseudomonas aeruginosa; assay type: cell-based
Experimental: Minimum inhibitory concentrations (MICs) of SET-M33L were determined against 76 clinical isolates of Pseudomonas aeruginosa and 73 clinical isolates of Klebsiella pneumoniae. The isolates were selected on the basis of their resistance phenotypes and major antibiotic resistance determinants, including resistance to colistin and carriage of carbapenemase-encoding genes (Table 1 and supplemental Tables S1 and S2).
MIC values were determined against a large collection of clinical isolates. Most isolates were collected during routine susceptibility testing procedures at the Clinical Microbiology Unit of Careggi University Hospital in Florence, while specific isolates were selected according to their phenotype or genotype (e.g. carriage of carbapenemase-encoding genes, inclusion in epidemic bacterial clones, resistance to colistin) from a collection of isolates already available at Department of Medical Biotechnologies, University of Siena. Detailed features of each strain, including relevant resistance phenotypes and genotypes were reported in supplemental Tables S1 and S2. MICs were determined in triplicate using a standard microdilution assay according to the guidelines of the Clinical and Laboratory Standards Institute[34]. SET-M33L was assayed using concentrations in the range 0.09–11.2 μM (0.5–64 μg/mL); testing was performed using a bacterial inoculum of 5 × 10^4 CFU/well prepared in cation-supplemented Mueller-Hinton broth (MHB) (Becton Dickinson, Franklin Lakes, NJ, USA) in a final volume of 100 μl. Results were recorded after 18–20 h of incubation at 35 °C.

Substance: colistin sulfate
- mortality (BALB/c mice; after 24 hours): 70%
- mortality (BALB/c mice; immediately after inoculation): 50%
- sudden death (BALB/c mice; single i.v. dose 20 mg/Kg): 100%
- sudden death (BALB/c mice; single i.v. dose 40 mg/Kg): 100%
- times more prone to select resistant mutants than SET-M33L [1]: at least 500
- MIC ([2]; isolate SI_P1, phenotype none): ≤ 0.5 µg/mL
- MIC ([2]; isolate SI_P2, CARB, β/I, ESC, FQ, AG, blaVIM): 2 µg/mL
- MIC ([2]; isolate SI_P3, phenotype none): 2 µg/mL
- MIC ([2]; isolate SI_P4, CARB, β/I, ESC, FQ, AG): ≤ 0.5 µg/mL
- MIC ([2]; isolate SI_P5, CARB, ESC, β/I, FQ, AG): ≤ 0.5 µg/mL
- MIC ([2]; isolate SI_P6, phenotype none): 2 µg/mL
- MIC ([2]; isolate SI_P7, CARB, β/I, ESC, FQ, AG): ≤ 0.5 µg/mL
- MIC ([2]; isolate SI_P8, CARB, ESC, AG): ≤ 0.5 µg/mL
- MIC ([2]; isolate SI_P9, CARB, β/I, ESC, FQ, AG): ≤ 0.5 µg/mL
- MIC ([2]; isolate SI_P10, CARB, β/I, ESC, FQ, AG): ≤ 0.5 µg/mL
- MIC ([2]; isolate SI_P11, CARB, β/I, ESC, FQ, AG): 2 µg/mL
- MIC ([2]; isolate SI_P12, CARB, β/I, ESC, FQ): 2 µg/mL
- MIC ([2]; isolate SI_P13, phenotype none): 2 µg/mL
- MIC ([2]; isolate SI_P14, CARB): 2 µg/mL
- MIC ([2]; isolate SI_P15, CARB, β/I, ESC, FQ, AG): ≤ 0.5 µg/mL
- MIC ([2]; isolate SI_P16, CARB, β/I, ESC, FQ, AG): 2 µg/mL
- MIC ([2]; isolate SI_P17, CARB, β/I, ESC, FQ, AG, blaVIM): ≤ 0.5 µg/mL
- MIC ([2]; isolate SI_P18, phenotype none): 1 µg/mL
- MIC ([2]; isolate SI_P19, phenotype none): 2 µg/mL
- MIC ([2]; isolate SI_P20, phenotype none): ≤ 0.5 µg/mL
- MIC ([2]; isolate SI_P21, FQ, AG): 1 µg/mL
- MIC ([2]; isolate SI_P22, phenotype none): ≤ 0.5 µg/mL
- MIC ([2]; isolate SI_P23, phenotype none): ≤ 0.5 µg/mL
- MIC ([2]; isolate SI_P24, phenotype none): ≤ 0.5 µg/mL
- MIC ([2]; isolate SI_P25, AG): ≤ 0.5 µg/mL
- MIC ([2]; isolate SI_P26, phenotype none): ≤ 0.5 µg/mL
- MIC ([2]; isolate SI_P27, CARB): ≤ 0.5 µg/mL
- MIC ([2]; isolate SI_P28, phenotype none): ≤ 0.5 µg/mL
- MIC ([2]; isolate SI_P29, phenotype none): ≤ 0.5 µg/mL
- MIC ([2]; isolate SI_P30, phenotype none): ≤ 0.5 µg/mL
- MIC ([2]; isolate SI_P31, phenotype none): ≤ 0.5 µg/mL
- MIC ([2]; isolate SI_P32, phenotype none): ≤ 0.5 µg/mL
- MIC ([2]; isolate SI_P33, CARB, β/I, ESC, FQ): ≤ 0.5 µg/mL
- MIC ([2]; isolate SI_P34, CARB, β/I): ≤ 0.5 µg/mL
- MIC ([2]; isolate SI_P35, CARB, β/I, ESC, FQ): 2 µg/mL
- MIC ([2]; isolate SI_P36, CARB, AG): ≤ 0.5 µg/mL
- MIC ([2]; isolate SI_P37, CARB, β/I, ESC, FQ, AG): ≤ 0.5 µg/mL
- MIC ([2]; isolate SI_P38, CARB, β/I, ESC, FQ, AG, blaVIM): ≤ 0.5 µg/mL
- MIC ([2]; isolate SI_P39, CARB, β/I, ESC, FQ, AG, blaVIM): ≤ 0.5 μg/mL and ≤ 0.4 μM
- MIC ([2]; isolate SI_P40, phenotype none): ≤ 0.5 μg/mL and ≤ 0.4 μM
- MIC ([2]; isolate SI_P41, CARB, β/I, ESC, FQ, AG): ≤ 0.5 μg/mL and ≤ 0.4 μM
- MIC ([2]; isolate SI_P42, phenotype none): ≤ 0.5 μg/mL and ≤ 0.4 μM
- MIC ([2]; isolate SI_P43, FQ): ≤ 0.4 μM and ≤ 0.5 μg/mL
- MIC ([2]; isolate SI_P44, CARB, ESC, FQ, AG): ≤ 0.5 μg/mL and ≤ 0.4 μM
- MIC ([2]; isolate SI_P45, phenotype none): ≤ 0.5 μg/mL and ≤ 0.4 μM
- MIC ([2]; isolate SI_P46, phenotype none): ≤ 0.5 μg/mL and ≤ 0.4 μM
- MIC ([2]; isolate SI_P47, phenotype none): ≤ 0.5 μg/mL and ≤ 0.4 μM
- MIC ([2]; isolate SI_P48, phenotype none): ≤ 0.5 μg/mL and ≤ 0.4 μM
- MIC ([2]; isolate SI_P49, CARB, β/I, ESC, FQ, AG): ≤ 0.5 μg/mL and ≤ 0.4 μM
- MIC ([2]; isolate SI_P50, phenotype none): ≤ 0.5 μg/mL and ≤ 0.4 μM
- MIC ([2]; isolate SI_P51, CARB, β/I, ESC, FQ, AG): ≤ 0.5 μg/mL and ≤ 0.4 μM
- MIC ([2]; isolate SI_P52, CARB, AG): ≤ 0.5 μg/mL and ≤ 0.4 μM
- MIC ([2]; isolate SI_P53, CARB, β/I, ESC, FQ): ≤ 0.5 μg/mL and ≤ 0.4 μM
- MIC ([2]; isolate SI_P54, CARB, β/I, FQ, AG): ≤ 0.5 μg/mL and ≤ 0.4 μM
- MIC ([2]; isolate SI_P55, phenotype none): ≤ 0.5 μg/mL and ≤ 0.4 μM
- MIC ([2]; isolate SI_P56, CARB): ≤ 0.5 μg/mL and ≤ 0.4 μM
- MIC ([2]; isolate SI_P57, β/I): ≤ 0.5 μg/mL and ≤ 0.4 μM
- MIC ([2]; isolate SI_P58, FQ, AG): ≤ 0.5 μg/mL and ≤ 0.4 μM
- MIC ([2]; isolate SI_P59, β/I, ESC): ≤ 0.5 μg/mL and ≤ 0.4 μM
- MIC ([2]; isolate SI_P60, CARB, β/I, ESC, FQ, AG, blaVIM): 2 μg/mL and 1.5 μM
- MIC ([2]; isolate SI_P61, CARB, β/I, ESC, FQ, AG, blaVIM): ≤ 0.5 μg/mL and ≤ 0.4 μM
- MIC ([2]; isolate SI_P62, CARB, β/I, ESC, FQ, AG, blaVIM): 2 μg/mL and 1.5 μM
- MIC ([2]; isolate SI_P63, CARB, β/I, ESC, FQ, AG, blaVIM): ≤ 0.5 μg/mL and ≤ 0.4 μM
- MIC ([2]; isolate SI_P64, CARB, β/I, ESC, FQ, AG): ≤ 0.5 μg/mL and ≤ 0.4 μM
- MIC ([2]; isolate SI_P65, CARB, β/I, ESC, FQ, AG): 2 μg/mL and 1.5 μM
- MIC ([2]; isolate SI_P66, CARB, FQ): ≤ 0.5 μg/mL and ≤ 0.4 μM
- MIC ([2]; isolate SI_P67, CARB, β/I, ESC, FQ, AG, blaVIM): ≤ 0.5 μg/mL and ≤ 0.4 μM
- MIC ([2]; isolate SI_P68, phenotype none): ≤ 0.5 μg/mL and ≤ 0.4 μM
- MIC ([2]; isolate SI_P69, CARB): 2 μg/mL and 1.5 μM
- MIC ([2]; isolate SI_P70, CARB): ≤ 0.5 μg/mL and ≤ 0.4 μM
- MIC ([2]; isolate SI_P71, phenotype none): ≤ 0.5 μg/mL and ≤ 0.4 μM
- MIC ([2]; isolate SI_P72, FQ, AG): 2 μg/mL and 1.5 μM
- MIC ([2]; isolate SI_P73, β/I): ≤ 0.5 μg/mL and ≤ 0.4 μM
- MIC ([2]; isolate SI_P74, phenotype none): ≤ 0.5 μg/mL and ≤ 0.4 μM
- MIC ([2]; isolate SI_P75, CARB, β/I, ESC, FQ, AG, blaIMP): 2 μg/mL and 1.5 μM
- MIC ([2]; isolate SI_P76, CARB, β/I, ESC, FQ, AG, blaIMP): 1 μg/mL and 0.7 μM
